How the values were obtained:
4T1 cells = assay: BALB/C mice model for tumor metastasis (4T1, lung metastases); type: in vivo; details: for Inhibitory effect on tumor metastasis, in words: compared with parent drug group and control group
Method: 1) 4T1 cells were purchased from American type culture collection (ATCC) and identified according the specification provided by ATCC. Cells were cultivated in DMEM culture solution containing 10% fetal bovine serum at 37° C. and 5% CO2. The cells were passaged for every three days and cells within the 15th passage were used.
2) Production of tumor metastasis. 10^6 […] were subcutaneously injected to the back of the BALB/C mice. Mice were randomly grouped after the tumor grew to about 1.5 cm. The subcutaneous tumor was removed by surgery and drug treatment began. Mice were killed after anesthesia on day 27. The whole lung was taken out and put into Bouin's solution for staining. The number of the tumor metastasized to lung was counted with anatomical microscope.
(§1) The control group was administered by physiological saline. Drugs were administered once for every three days for 4 times.
as §1
According to the clinical application of B1, B2, B3 and B4, drugs were intravenously injected (IV). […] The control group was administered by physiological saline. Drugs were administered once for every three days for 4 times.
According to the clinical application of D1, D2, D3 and D4, drugs were intravenously injected (IV). […] The control group was administered by physiological saline. Drugs were administered once for every three days for 4 times.

BALB/C mice = assay: Maximum tolerated dose (MTD) / acute toxicity by single intravenous injection; details: for Behaviors and death observed: BALB/C mice receiving 90 mg/kg injection; for MTD (maximum tolerated dose): intravenous injection, one time
[1] = Solubility / formulation test in solvent 1 and solvent 2; type: physicochemical; details: for Concentration achieved, completely dissolved in both solvent 1 and solvent 2: solvent 1 injectable water
Method: In Table 11, AAN, AANL and AANK indicate the linkage formed by small peptides in the compounds, A is Ala, N is Asn, L is Leu and K is Lys. […] The dissolution concentration is 10 mg/ml.
B1, B2, B3 and B4 and various control compounds were dried under vacuum, sterilized via gas sterilization, and separately packing in a sterile room. Before animal test, B1, B2, B3 and B4 were dissolved by solvent 1 (injectable water) or solvent 2 (30% alcohol, 70% injectable water) and diluted by injectable water to the desired concentration in sterile room. […] Change in solubility may greatly affect the formulation scheme of a drug.
D1, D2, D3, D4 and various control compounds were dried under vacuum, sterilized via gas sterilization, and separately packing in a sterile room. […] Change in solubility may greatly affect the formulation scheme of a drug.

[2] = system: Human prostate cancer PC-3 cells / Panc-1 cells; assay: Tumor treatment in nude mice (PC-3 cells purchased, Panc-1 cells injected; Examples 22, 32, 42); type: in vivo; details: for Inhibition on tumor growth, in words: compared with parent drug group (same molar concentration) and control group; for Size of tumor (mm^3) Day 10 / inhibitory rate on tumor Day 10 / Size of tumor (mm^3) Day 24 / inhibitory rate on tumor Day 24: nude mice, IV once weekly for four weeks, Paclitaxel 8 mg/kg
Method: 1) Human prostate cancer PC-3 cells were purchased from American type culture collection (ATCC) and identified according the specification provided by ATCC. Cells were cultivated in DMEM culture solution containing 10% fetal bovine serum at 37° C. and 5% CO2. The cells were passaged for every three days and cells within the 15th passage were used.
2) Production of tumor. 5×10^6Panc-1 cells were subcutaneously injected to the back of the nude mice. Mice were randomly grouped after the tumor reached at least 100 mm^3. Then treatment began and the day on which the treatment began was day 1.
The control group was administered by physiological saline. Drugs were administered once weekly for four weeks.
According to the clinical application of B1, B2, B3 and B4, drugs were intravenously injected (IV). […] The control group was administered by physiological saline. Drugs were administered once weekly for four weeks.

[3] = system: Human fibrosarcoma HT-1080 tumor tissue homogenate; type: biochemical; details: Human fibrosarcoma HT-1080; 37° C., 1 mg/ml, 100 μg acidized homogenate
Procedure, shortened: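 37° C; compound 1 mg/ml into 100 μg acidified tissue homogenate, pH6.0. Read-out: protease-mediated activation.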

[4] = day 27, IV once every three days for 4 times, E1-E4 15 mg/kg, mitomycin 1 mg/kg
[5] = lung metastases counted on day 27, IV once every three days for 4 times, E1-E4 15 mg/kg, mitomycin 1 mg/kg
[6] = 4T1, BALB/C mice, lung, day 27, IV every three days for 4 times, S1′-S4′ 12 mg/kg, Paclitaxel 4 mg/kg
[7] = Table 28, BALB/C mice, 4T1, lung metastases day 27, IV every three days for 4 times, A1-A4 12 mg/kg, Paclitaxel 4 mg/kg
[8] = single intravenous injection, 125 mg/kg, 10 BALB/C mice per group
[9] = single intravenous injection, 150 mg/kg, 10 BALB/C mice per group
[10] = single intravenous injection, 175 mg/kg, 10 BALB/C mice per group
[11] = single intravenous injection, 200 mg/kg, 10 BALB/C mice per group

Compound: CO[C@@]12[C@H](COC(N)=O)C3=C(C(=O)C(C)=C(N)C3=O)N1C[C@@H]1N[C@@H]12 [mitomycin, reference compound]
- Inhibitory rate on metastasis (4T1 cells; [4]): 5.9%
- Number of metastasized tumor (4T1 cells; [5]): 128 ± 25
- Mortality rate (%) (BALB/C mice; 6 mg/kg single IV injection, 10 BALB/C mice): 0%
- Number of dead animal (BALB/C mice; 6 mg/kg single IV injection, 10 BALB/C mice, observed 17 days): 0
- Mortality rate (%) (BALB/C mice; 7 mg/kg single IV injection, 10 BALB/C mice): 10%
- Number of dead animal (BALB/C mice; 7 mg/kg single IV injection, 10 BALB/C mice, observed 17 days): 1
- Mortality rate (%) (BALB/C mice; 8 mg/kg single IV injection, 10 BALB/C mice): 40%
- Number of dead animal (BALB/C mice; 8 mg/kg single IV injection, 10 BALB/C mice, observed 17 days): 4
- Mortality rate (%) (BALB/C mice; 9 mg/kg single IV injection, 10 BALB/C mice): 90%
- Number of dead animal (BALB/C mice; 9 mg/kg single IV injection, 10 BALB/C mice, observed 17 days): 9

Compound: COCCOCCOCCOCCOCCOCC(=O)N[C@H](C)C(=O)N[C@H](C)C(=O)N[C@H](CC(N)=O)C(=O)Nc1ccc(COC(=O)OC(C(=O)OC2C[C@@]3(O)[C@@H](OC(=O)c4ccccc4)[C@H]4[C@](C)(C(=O)[C@H](OC(C)=O)C(=C2C)C3(C)C)[C@@H](O)CC2OC[C@]24OC(C)=O)[C@@H](NC(=O)c2ccccc2)c2ccccc2)cc1 (stereo partly drawn) [S2′]
- solubility in Solvent 1 ([1]; Solvent 1 injectable water, dissolution concentration 10 mg/ml): soluble
- solubility in Solvent 2 ([1]; Solvent 2: 50% injectable water, 45%-49% propanediol, 1%-5% Tween80, dissolution concentration 10 mg/ml): soluble
- Concentration achieved, completely dissolved in both solvent 1 and solvent 2 ([1]; solvent 2 50% injectable water, 42%-49% propanediol, 1%-8% Tween80): 10000 µg/mL
- Inhibition on tumor growth, in words [2]: greatly improved
- Size of tumor (mm^3) Day 10 ([2]; S1′-S4′ 24 mg/kg): 60.17 ± 30.26 mm^3
- inhibitory rate on tumor Day 10 ([2]; S1′-S4′ 24 mg/kg): 36.4%
- Size of tumor (mm^3) Day 24 ([2]; S1′-S4′ 24 mg/kg): 42.39 ± 62.24 mm^3
- inhibitory rate on tumor Day 24 ([2]; S1′-S4′ 24 mg/kg): 83.01%
- Inhibitory rate on metastasis (4T1 cells; [6]): 94.1%
- Number of metastasized tumor (4T1 cells; [6]): 8 ± 7
- Inhibitory effect on tumor metastasis, in words (4T1 cells): greatly improved
- Behaviors and death observed (BALB/C mice): no pilo-erection, hair tousle and lackluster, lethargy, stoop, irritable reaction and death
- MTD (maximum tolerated dose) (BALB/C mice; BALB/C mice): about 90 mg/kg
- Mortality rate (%) (BALB/C mice; BALB/C mice, single iv, 125 mg/kg): 0%
- Number of dead animal (BALB/C mice; BALB/C mice, single iv, 125 mg/kg, 10 animals): 0
- Mortality rate (%) (BALB/C mice; BALB/C mice, single iv, 150 mg/kg): 0%
- Number of dead animal (BALB/C mice; BALB/C mice, single iv, 150 mg/kg, 10 animals): 0
- Mortality rate (%) (BALB/C mice; BALB/C mice, single iv, 175 mg/kg): 0%
- Number of dead animal (BALB/C mice; BALB/C mice, single iv, 175 mg/kg, 10 animals): 0
- Mortality rate (%) (BALB/C mice; BALB/C mice, single iv, 200 mg/kg): 10%
- Number of dead animal (BALB/C mice; BALB/C mice, single iv, 200 mg/kg, 10 animals): 1

Compound: COCCOCCOCCOCCOCCOCC(=O)NCCCC[C@H](NC(=O)COCCOCCOCCOCCOCCOC)C(=O)N[C@H](C)C(=O)N[C@H](C)C(=O)N[C@H](CC(N)=O)C(=O)Nc1ccc(COC(=O)OC(C(=O)OC2C[C@@]3(O)[C@@H](OC(=O)c4ccccc4)[C@H]4[C@](C)(C(=O)[C@H](OC(C)=O)C(=C2C)C3(C)C)[C@@H](O)CC2OC[C@]24OC(C)=O)[C@@H](NC(=O)c2ccccc2)c2ccccc2)cc1 (stereo partly drawn) [Compound A2]
- solubility in Solvent 1 ([1]; solvent 1 (injectable water), Table 22, Paclitaxel series): soluble
- Concentration achieved, completely dissolved in both solvent 1 and solvent 2 ([1]; solvent 2 45% alcohol, 55% injectable water): 10000 µg/mL
- solubility in Solvent 2 ([1]; solvent 2 (45% alcohol, 55% injectable water), Table 22, Paclitaxel series): soluble
- Solubility in water, in words ([1]; water): can directly dissolve in water
- Size of tumor (mm^3) Day 10 ([2]; Table 26, A1-A4 24 mg/kg): 55.19 ± 56.2 mm^3
- inhibitory rate on tumor Day 10 ([2]; Table 26, A1-A4 24 mg/kg): 81.3%
- Size of tumor (mm^3) Day 24 ([2]; Table 26, A1-A4 24 mg/kg): 44.43 ± 47.9 mm^3
- inhibitory rate on tumor Day 24 ([2]; Table 26, A1-A4 24 mg/kg): 88.3%
- Inhibition on tumor growth, in words [2]: greatly improved
- Inhibitory rate on metastasis (4T1 cells; [7]): 93.9%
- Number of metastasized tumor (4T1 cells; [7]): 9 ± 5
- Inhibitory effect on tumor metastasis, in words (4T1 cells): greatly improved
- Behaviors and death observed (BALB/C mice): no pilo-erection, hair tousle and lackluster, lethargy, stoop, irritable reaction and death
- MTD (maximum tolerated dose) (BALB/C mice; BALB/C mice): about 90 mg/kg
- Mortality rate (%) (BALB/C mice; [8]): 10%
- Number of dead animal (BALB/C mice; [8]): 2
- Mortality rate (%) (BALB/C mice; [9]): 0%
- Number of dead animal (BALB/C mice; [9]): 0
- Mortality rate (%) (BALB/C mice; [10]): 0%
- Number of dead animal (BALB/C mice; [10]): 0
- Mortality rate (%) (BALB/C mice; [11]): 0%
- Number of dead animal (BALB/C mice; [11]): 0

Compound: COCCOCCOCCOCCOCCOCC(=O)N[C@H](C)C(=O)N[C@H](C)C(=O)N[C@H](CC(N)=O)C(=O)Nc1ccc(COC(=O)N2[C@H]3[C@@H]2CN2C4=C(C(=O)C(N)=C(C)C4=O)[C@H](COC(N)=O)[C@]32OC)cc1 [Compound E2]
- Activation ratio (%) in homogenates from different tumor tissues [3]: 85.7%
- Inhibitory effect on tumor metastasis, in words (4T1 cells): greatly improved
- Inhibitory rate on metastasis (4T1 cells; [4]): 94.1%
- Number of metastasized tumor (4T1 cells; [5]): 8 ± 7
- Mortality rate (%) (BALB/C mice; 50 mg/kg single IV injection, 10 BALB/C mice): 0%
- Number of dead animal (BALB/C mice; 50 mg/kg single IV injection, 10 BALB/C mice, observed 17 days): 0
- Mortality rate (%) (BALB/C mice; 70 mg/kg single IV injection, 10 BALB/C mice): 0%
- Number of dead animal (BALB/C mice; 70 mg/kg single IV injection, 10 BALB/C mice, observed 17 days): 0
- Mortality rate (%) (BALB/C mice; 90 mg/kg single IV injection, 10 BALB/C mice): 0%
- Number of dead animal (BALB/C mice; 90 mg/kg single IV injection, 10 BALB/C mice, observed 17 days): 0
- Mortality rate (%) (BALB/C mice; 110 mg/kg single IV injection, 10 BALB/C mice): 10%
- Number of dead animal (BALB/C mice; 110 mg/kg single IV injection, 10 BALB/C mice, observed 17 days): 1
- Behaviors and death observed (BALB/C mice): no pilo-erection, hair tousle and lackluster, lethargy, stoop, irritable reaction and death

Reference: patent US10682371B2, “Small molecule conjugates specifically activated in tumor microenvironment for targeting and use thereof” (priority 2014, dated 2020)
